Measured values taken from patent US20260183303A1, “PDK1 REGULATORY COMPOUND AND COMPOSITION CONTAINING THE SAME” (PROVIBIO CO., LTD., priority 2024, published 2026).

Experiments:
[1] = molecular target: T1, PDK1 (phosphoinositide-dependent kinase 1) phosphorylation (Homo sapiens, UniProt O15530); experiment: PDK1 phosphorylation (pPDK1-PE) by flow cytometry in SU-DHL-8 cells; type: cell-based; settings: 24 hours, compared to the control group
T1 construct: endogenous in cells; host or cells: SU-DHL-8 (ATCC CRL-2961)
T1 sequence (O15530 1-556): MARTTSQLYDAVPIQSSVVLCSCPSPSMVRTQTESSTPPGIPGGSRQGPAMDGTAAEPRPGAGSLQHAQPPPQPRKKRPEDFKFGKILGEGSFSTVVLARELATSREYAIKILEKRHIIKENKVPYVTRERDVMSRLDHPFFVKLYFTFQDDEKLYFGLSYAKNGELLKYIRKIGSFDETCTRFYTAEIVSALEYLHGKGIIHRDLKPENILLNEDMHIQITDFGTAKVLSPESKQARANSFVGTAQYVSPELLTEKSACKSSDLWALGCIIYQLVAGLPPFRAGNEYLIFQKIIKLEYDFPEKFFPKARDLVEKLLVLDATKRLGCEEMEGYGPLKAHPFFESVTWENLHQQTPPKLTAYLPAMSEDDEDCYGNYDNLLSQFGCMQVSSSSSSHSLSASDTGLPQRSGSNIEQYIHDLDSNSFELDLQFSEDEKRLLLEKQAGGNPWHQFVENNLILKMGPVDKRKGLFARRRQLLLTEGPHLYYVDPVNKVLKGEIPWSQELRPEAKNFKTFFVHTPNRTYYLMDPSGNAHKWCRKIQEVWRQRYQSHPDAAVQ
Protocol: After stabilizing the cells, the compound of the present invention was added, and the cells were cultured for 24 hours.
After drug treatment, the cells were harvested, and the Fc receptor blocking process was performed. The cells were then fixed and permeabilized using the Intracellular Staining Kit (Cat. No. BD554715) from BD Biosciences. Subsequently, the intracellular pPDK1 was stained using the pPDK1-PE fluorescently labeled antibody (BD Biosciences).
Referring to the figure, the vertical axis represents the phosphorylation level of PDK1 (phospho-PDK1 expression level), and the horizontal axis denotes the concentration-dependent treatment conditions of each compound.

[2] = test system: MRL/lpr mice with hair loss symptoms in the facial region; experiment: Hair loss treatment and hair follicle Ki-67 IHC in MRL/lpr mice; type: in vivo; settings: 41-week-old female MRL/lpr mice; GO15F (30 mg/kg), G048 (1 mg/kg), G088 (0.5 mg/kg) intraperitoneally once daily
Protocol: Additionally, in 41-week-old female MRL/lpr mice, the compounds GO15F (30 mg/kg), G048 (1 mg/kg), and G088 (0.5 mg/kg) were administered intraperitoneally once daily.
To confirm the proliferative activity of hair follicle cells in the skin tissue of these mice, the mice were sacrificed 14 days after administration of the compounds of the present invention, and Ki-67 immunohistochemistry […] was performed.
For this purpose, the excised skin tissue was fixed in formalin, embedded in paraffin blocks, and stained with a Ki-67-specific antibody on tissue sections prepared as slides.

[3] = test system: bleomycin-induced pulmonary fibrosis mice; experiment: Pulmonary fibrosis model induced by bleomycin intratracheal administration; type: in vivo, Balb/c mice; settings: BLM mice, vs BLM-treated group
Description: To evaluate the therapeutic efficacy of the compound according to the present invention against pulmonary fibrosis, an animal model of pulmonary fibrosis induced by bleomycin intratracheal administration was established.
For this purpose, 8-week-old male Balb/c mice were subjected to general anesthesia using an inhalation anesthetic (2-3% isoflurane in oxygen), followed by disinfection of the neck region, skin incision, and exposure of the trachea.
Bleomycin (Sigma-Aldrich, USA)was directly administered into the trachea at a concentration of 5 mg/kg in a solution of […].
Two days prior to Bleomycin administration, the compound of the present invention or the comparative drug was administered intraperitoneally at the specified concentration and dose, and the administration was continued once daily for a total of 14 days.
The experimental groups included Normal, Bleomycin alone (BLM), and BLM plus the compound of the present invention (BLM+G088, 0.2 mg/kg).
Ten days later, the mice were euthanized humanely using carbon dioxide gas, the trachea was incised, and PBS was injected into the trachea to remove blood from the lungs.
The lung tissue washed with PBS was excised, fixed in 4% paraformaldehyde solution for 24 hours, and then paraffin blocks and tissue sections were prepared. The prepared sections were subjected to pathological analysis using H&E, Masson's trichrome, and Sirius red staining.
Additionally, immunohistochemical (IHC) staining was performed for α-SMA (α-smooth muscle actin), an indicator of lung fibroblast activation.

[4] = test system: human lung fibroblasts MRC-5 cell lines; experiment: Collagen I Western blot in TGF-β treated MRC-5 cells; type: cell-based; settings: MRC-5, TGF-β (5 ng/ml), G088 0.5 μM and 1 M (so in the source), 24 hours
Protocol: To confirm that the compound of the present invention directly acts on fibrosis-related mechanisms, in vitro experiments were performed using human lung fibroblasts MRC-5 cell lines (Korea Cell Bank).
First, MRC-5 cells were seeded at 5×10^3 cells per well in a 6-well plate and stabilized for 24 hours.
Subsequently, experimental groups were established, including a control group, a group treated with TGF-β (5 ng/ml) alone, and groups treated with TGF-β and the compound G088 from the present invention at concentrations of 0.5 μM and […], respectively.
After treating each group with the drugs for 24 hours, the cell medium was removed, and the cells were washed twice with cold PBS. Then, RIPA lysis buffer containing phosphatase inhibitor and protease inhibitor was added to each group to extract proteins.
The extracted proteins were incubated at 4° C. for 30 minutes, then centrifuged at 13,000 rpm for 15 minutes, and the supernatant was collected. The total protein concentration was measured using the BCA protein quantification method.
Subsequently, the proteins were separated by SDS-PAGE, transferred to a PVDF membrane, and Western blot analysis was performed.
The expression levels of Collagen I, a marker related to pulmonary fibrosis, were confirmed, with GAPDH used as an internal control.

[5] = molecular target: T2, full-length PDK1 (PDK1-FL) (Homo sapiens, UniProt O15530); experiment: Binding affinity by Microscale Thermophoresis (MST), full-length PDK1; settings: ratio of Kd values
T2 construct: full-length (PDK1-FL) protein of human-derived PDK1; made in house; host or cells: Sf9 insect cells, baculovirus
T2 sequence (O15530 1-556): T1 sequence (O15530 1-556)
Protocol: Experimental Example 16: Binding affinity experiment with PDK1 using MST Microscale Thermophoresis (MST) analysis was performed to quantitatively measure the binding affinity between PDK1 protein and substrate peptides (PDKTide) or the company-developed low-molecular-weight compound (GO88).
The target proteins were the full-length (PDK1-FL) protein of human-derived PDK1 and the Protein Kinase Domain (PKD) fragment, which were expressed using a baculovirus expression system in insect cell lines (Sf9).
The purity of the purified proteins was confirmed by SDS-PAGE and Coomassie Brilliant Blue staining.
The purified protein was labeled with a fluorescent label using the Monolith NT™ RED-NHS Protein Fluorescent Labeling Kit (NanoTemper).
Specifically, 20 μM of the protein was dissolved in PBS (pH 7.4) buffer, mixed with the fluorescent reagent, and reacted at room temperature under dark conditions for 30 minutes. The mixture was then buffered with MST analysis buffer (50 mM HEPES, 150 mM NaCl, 1 mM DTT, 0.05% Tween-20, pH 7.5). […]
The reaction samples were injected into an MST-specific capillary (NanoTemper) and analyzed using a Monolith NT.115 device (NanoTemper) under laser intensity conditions. […]
The measured data were analyzed using MO.Affinity Analysis software (NanoTemper), and the dissociation constant (Kd) was calculated from the binding curve.

[6] = test system: MRL/MpJ-Faslpr/J (MRL/lpr) lupus animal model; experiment: Systemic lupus erythematosus model, MRL/lpr mice; type: in vivo
Description: The MRL/MpJ-Faslpr/J (hereinafter referred to as “MRL/lpr”) used in this experiment is one of the representative animal models for systemic lupus erythematosus (SLE), known to produce various autoantibodies, including antinuclear antibodies, due to the lpr (lymphoproliferation) gene.
Generally, female MRL/lpr develop systemic lupus erythematosus around 12 weeks of age, and approximately 50% of the animals die by 30 weeks of age.
In this invention, the period up to 9 weeks of age was considered the pre-disease stage, and the period after 23 weeks of age was considered the post-disease stage, and efficacy verification experiments using this model were conducted.
To obtain experimental animals, female MRL/lpr mice aged 6 weeks were imported from The Jackson Laboratory, and MRL/lpr mice were imported from The Jackson Laboratory and acclimatized for one week in an SPF (Specific Pathogen Free) facility maintained at a temperature of 21-24° C., humidity of 40-60%, and a 12-hour light-dark cycle (lights on at 7:00 AM, lights off at 7:00 PM).
Subsequently, female and male MRL/lpr mice were mated at a ratio of 2:1 in the same facility, and the female offspring were administered the compound G015F of the present invention or vehicle at a dose of 30 mg/kg once daily via intraperitoneal injection or oral administration from the age of 10 weeks until 23 weeks of age.
Urine samples were collected once a week from each individual and used for analytical experiments.
At 23 weeks of age, necropsy was performed on each MRL/lpr mouse, and serum, kidneys, and spleens were isolated and used for analytical experiments.
The protein concentration in urine collected weekly from the control group or experimental group was analyzed using ‘Quick Start™ Bradford 1× Dye Reagent (Bio-Rad, Cat. #5000205).’
In each well of a 96-well plate, 5 μl of urine sample diluted with triple-distilled water and 250 μl of 1× dye reagent were added, reacted, and the absorbance was measured at 595 nm.
The concentration of anti-nuclear antibodies (Anti-dsDNA Ab) was measured using the ‘Mouse Anti-dsDNA IgG ELISA Kit (Alpha Diagnostic International, Cat. #5120)’ on serum isolated at the time of necropsy in the lupus animal model.
Each mouse serum was diluted to a final concentration of 1/5000 with Working Sample Diluent (WSD) and Low NSB Sample Diluent (LNSD), followed by adding 100 μl of the diluted serum to wells coated with anti-dsDNA and incubating at room temperature for 60 minutes.
The wells were then washed four times with 200 μl of washing buffer, followed by the addition of 100 μl of Anti-Mouse IgG-HRP antibody, and the mixture was incubated at room temperature for 30 minutes.
Each well was washed four times with 200 μl of washing buffer, and 100 μl of 3,3′,5,5′-Tetramethylbenzidine (TMB) substrate solution was added to each well.
The degree of color change to blue in the wells containing the standard solution was checked, and after 15 minutes, 100 μl of stop solution was added to terminate the reaction.
After the reaction was complete, the optical density (OD) was measured at 450 nm. […]
After that, each well was washed twice with 400 μl of washing solution, and 100 μl of TMB substrate solution was added to each well.
The degree of color change to blue in the wells containing the standard solution was checked, and after 15 minutes, 100 μl of stop solution was added to stop the reaction.
To investigate the effect of G015F administration on changes in the ratio of immune cells in the spleen of a lupus animal model, the spleens of mice administered each compound were excised, cells were extracted, and the cells were suspended in MACS buffer (autoMACS Washing Solution, Miltenyi Biotec., Cat. #130-092-987).
For flow cytometry analysis, FACS tubes (5 mL round tubes, Falcon, Cat. #352052)were used. […]

[7] = serum at necropsy (23 weeks), ELISA

Structure (SMILES)	phospho-PDK1 expression level (inhibition of PDK1 phosphorylation) [1]	hair growth on the facial region [2]	collagen deposition (Masson's trichrome, Sirius red) [3]	expression of α-SMA in lung tissue (IHC) [3]	protein expression of Collagen I [4]	binding affinity of full-length PDK1 compared to the PDK fragment [5]	protein concentration in urine ([6]; 30 mg/kg once daily, weekly urine, Bradford)	renal pathological tissue staining (glomeruli) ([6]; H&E, PAS, Masson trichrome)	B cells, T cells and macrophages in the spleen ([6]; flow cytometry (B220, CD3, CD11b/F4/80))	IgG deposition in kidney tissue ([6]; immunofluorescence staining)	concentration of anti-dsDNA IgG in the blood [6, 7]	total IgG concentration in the blood [6, 7]
Nc1ncccc1C(=O)NCCCCCCCCCCCCN1CCNCC1 [Compound G088]	stronger PDK1 inhibition	hair growth was confirmed	significantly reduced	significantly suppressed	inhibited in a concentration-dependent manner	six times stronger						
Nc1ncccc1C(=O)NCCCCCCCCCCCCF [Compound G015F]	inhibitory effect on PDK1 phosphorylation		significantly reduced	significantly suppressed			significantly lower	glomerular capillary loops were well maintained	reduced the increased B cells, T cells, and macrophages	significantly lower	significantly lower	significantly lower
Nc1ncccc1C(=O)NCCCCCCCCCCCCN1CCOCC1 [Compound 2, 2-Amino-N-(12-morpholin-4-yl-dodecyl)-nicotinamide]	stronger PDK1 inhibition	hair growth was confirmed										
